Experimental findings from article PMC10552892, “Ebselen oxide and derivatives are new allosteric HER2 inhibitors for HER2‐positive cancers” (Molecular Oncology, 2023) are described below.

Read-outs that look alike come from different tables or passages of the source.

By IC50 is commonly meant the concentration needed to halve the response being measured. One may read the EC50 as the midpoint of the concentration-response curve.

Assay [1] has as its target T1, JMHER2/FERME interaction (biot-JMHER2 peptide and GST-FERME, N-terminal FERM domain of ezrin) (Homo sapiens, UniProt P04626).
T1 construct: purchased Proteogenix
Nature of the assay: AlphaScreen competition of HER2 juxtamembrane peptide / ezrin FERM domain interaction. The class given is binding. To be noted: AlphaScreen, 20 h. As for the experimental part:
Biotinylated peptide derived from HER2 cytosolic juxtamembrane region (JMHER2, […] ) has been synthesized by Proteogenix (Schiltigheim, France). The binding reaction was described previously. Briefly, white 384‐well Optiplates (PerkinElmer, Whalham, MA, USA) were used to prepare GST‐FERME and biotinylated peptide in a binding buffer (PBS, pH 7.4, 5 mM MgCl2, and 0.02% CHAPS). GST‐FERME was incubated with biotinylated‐HER2 for 30 min at room temperature. AlphaScreen® Streptavidin Donor beads (20 μg·mL^−1) and Glutathione AlphaLISA® Acceptor Beads (20 μg·mL^−1) were added to the wells for overnight incubation in the dark and at room temperature. Light signal was detected with the EnVision® multilabel plate reader (PerkinElmer).
Ebselen came out as an interesting hit. Ebselen is a synthetic organoselenium compound with the anti‐inflammatory and antioxidant property that has been evaluated in clinical trials for ischemic stroke and acute hearing loss. However, in vivo, ebselen rapidly reacts with peroxynitrite to form ebselen oxide. […] In addition, using surface plasmon resonance (SPR), we confirmed that both compounds could directly bind to JMHER2 (Fig. 1E,F). […] The slight decrease in HER2 expression was not significant. To examine whether HER2 inhibition by ebselen oxide was dependent on JMHER2/FERME interaction, we transfected HBMEC cells with a previously described glycoprotein D‐tagged HER2 form mutated on the critical amino acids involved in ERM binding (gD‐HER2‐EBM*).

Assay [2] concerns the target T2, HER2 in heterodimers with HER3 (Homo sapiens, UniProt P04626).
T2 construct: in noncancer cells expressing normal levels of HER2; endogenous in cells; host or cells: HBMEC
Nature of the assay: Ligand-dependent HER2 activation in HBMECs upon HRG stimulation (western blot). To be noted: 10 μM, 100 ng/ml Heregulin-1β 5 min. It counts as cell-based. A general note: A western blot detects proteins with antibodies after separation by electrophoresis.

In the next assay the target is T3, HER2 (pY1248) in SKBR3 (Homo sapiens, UniProt P04626).
T3 construct: host or cells: SKBR3
T3 sequence (P04626 23-1255): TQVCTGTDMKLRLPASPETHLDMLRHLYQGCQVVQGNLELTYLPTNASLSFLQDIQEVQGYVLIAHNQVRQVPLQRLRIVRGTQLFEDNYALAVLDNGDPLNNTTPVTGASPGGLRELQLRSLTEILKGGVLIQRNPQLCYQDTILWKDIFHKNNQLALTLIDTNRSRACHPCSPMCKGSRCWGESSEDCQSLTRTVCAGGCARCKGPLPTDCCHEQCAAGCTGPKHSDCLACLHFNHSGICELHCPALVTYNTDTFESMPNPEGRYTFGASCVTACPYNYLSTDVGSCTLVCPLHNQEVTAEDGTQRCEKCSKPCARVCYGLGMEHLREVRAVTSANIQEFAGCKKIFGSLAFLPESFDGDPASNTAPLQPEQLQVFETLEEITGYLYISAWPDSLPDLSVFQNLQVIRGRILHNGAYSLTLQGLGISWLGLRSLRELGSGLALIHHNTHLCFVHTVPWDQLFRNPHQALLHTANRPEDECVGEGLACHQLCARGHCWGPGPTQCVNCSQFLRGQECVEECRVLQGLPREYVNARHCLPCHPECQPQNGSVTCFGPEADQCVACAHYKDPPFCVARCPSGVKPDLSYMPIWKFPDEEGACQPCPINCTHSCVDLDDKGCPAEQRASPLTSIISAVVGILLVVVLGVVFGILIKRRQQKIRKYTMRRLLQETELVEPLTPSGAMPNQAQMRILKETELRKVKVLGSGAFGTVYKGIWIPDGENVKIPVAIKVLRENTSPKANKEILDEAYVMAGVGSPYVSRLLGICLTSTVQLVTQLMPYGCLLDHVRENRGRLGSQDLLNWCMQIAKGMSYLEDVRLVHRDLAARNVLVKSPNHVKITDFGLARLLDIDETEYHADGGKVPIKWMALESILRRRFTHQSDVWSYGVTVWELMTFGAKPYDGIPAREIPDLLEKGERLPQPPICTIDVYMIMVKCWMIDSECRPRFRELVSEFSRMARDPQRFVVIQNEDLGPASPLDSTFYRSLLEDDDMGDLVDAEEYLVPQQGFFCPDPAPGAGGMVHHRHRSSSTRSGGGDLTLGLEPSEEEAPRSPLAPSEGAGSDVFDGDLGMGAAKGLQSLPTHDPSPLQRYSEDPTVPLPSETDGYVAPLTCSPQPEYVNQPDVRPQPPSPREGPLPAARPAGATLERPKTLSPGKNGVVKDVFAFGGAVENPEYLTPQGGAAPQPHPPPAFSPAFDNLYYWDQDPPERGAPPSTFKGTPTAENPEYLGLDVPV
Nature of the assay: HER2 activation (pY1248-HER2) in SKBR3 cells, western/dot blot. The class given is cell-based. More on the design: Inhibition of HER2 activation / HER2 inhibition, %: concentration or dose not given beside the values.

The next assay concerns MDA-MB-231. Nature of the assay: Soft agar anchorage-independent growth, MDA-MB-231. The conditions noted are these: 10 μM. The class given is cell-based, human. As for the experimental part: A bottom layer of 0.8% agarose in DMEM supplemented with 20% FBS and penicillin/streptomycin was added to 24‐well plates before seeding 25.10^3 cells per well in a 0.6% agarose top layer. Cells were treated with a vehicle or with 10 μM ebselen oxide or derivatives. Treatments were renewed 3 times a week. After 6 weeks, colonies were visualized with a phase‐contrast microscope and their number and size were quantified using IMAGEJ software.
Fig. 2 Ebselen oxide inhibits HER2 activation, cell proliferation, and anchorage‐independent growth of HER2^+ breast cancer cells. […] Blot and quantification of a representative experiment are shown out of 4 (A), 5 (B), or 2 (C) independent experiments. (D–F) Proliferation curves of HER2‐positive (SKBR3, D or BT474, E) or HER2‐negative (MDA‐MB‐231, F) breast cancer cell lines treated with vehicle or 10 μM ebselen oxide assessed by MTT assay. […] (G–I) Anchorage‐independent growth of SKBR3 (G), BT474 (H), or MDA‐MB‐231 (I) cells treated with vehicle or 10 μM ebselen oxide. […] Scale bars are […].

In another assay the target is T4, HER2 (pY1248) in SKOV3 (Homo sapiens, UniProt P04626).
T4 construct: host or cells: SKOV3
T4 sequence (P04626 23-1255): as above
Nature of the assay: HER2 activation in SKOV3 ovarian cancer cells, western blot. It counts as cell-based. The conditions noted are these: ebselen oxide 0–10 μM 24 h, AG1478 5 μM. As for the experimental part: Human bone marrow endothelial cells (HBMECs) kindly provided by Dr. B. Weksler (Weill Medical College of Cornell University, NY) were cultured as described previously. The human breast cancer cell lines [SKBR3 (RRID:CVCL_0033), BT474 (RRID:CVCL_0179), and MDA‐MB‐231 (RRID:CVCL_0062)], the human gastric [NCI‐87 (RRID:CVCL_1603)] and ovarian [SKOV3 (RRID:CVCL_0532)] cancer cell lines were obtained from the American Type Culture Collection (Manassas, VA) and were maintained in DMEM containing 10% FBS. All cell lines were cultured under 5% CO2 at 37 °C. HBMECs were transfected using Amaxa Inc nucleofector system (Kit V and U015 program). […]
Fig. 3 Ebselen oxide inhibits HER2 activation and HER2‐dependent proliferation in gastric and ovarian HER2^+ cancer cells. (A) HER2‐positive NCI‐87 gastric cancer cells were treated with ebselen oxide (0–20 μM) for 24 h, lysed, and analyzed by western blot using anti‐pY1248‐HER2, HER2, and β‐tubulin antibodies. […] (B) HER2‐positive SKOV3 ovarian cancer cells were treated with ebselen oxide (0–10 μM) for 24 h, lysed, and analyzed by western blot using anti‐pY1248‐HER2, HER2, and ezrin antibodies. […] (C, D) Proliferation curves of NCI‐N87 gastric (C) or SKOV3 ovarian (D) cancer cells treated with vehicle or 7–10 μM ebselen oxide measured by MTT assay. […]

The subject of assay [3] is HBMECs transfected with pRK5 empty vector. Nature of the assay: Proliferation of HBMECs transfected with pRK5 empty vector (Incucyte). To be noted: 5 μM, Incucyte 5 days.
Protocol: 25.10^3 cells/96‐well transfected HBMECs or 9.10^3 cancer cells were seeded and monitored with an Incucyte S3 imaging system (Sartorius, Goettingen, Germany) using 10× objective every 2 h during 5 days. Confluency analyses were performed using the dedicated Incucyte analysis system.
Proliferation was assessed by Incucyte during 5 days.
Representative quantification of the proliferation (B) is shown where data are mean ± sem (n=8-12).
vehicle, 5-10 µM Ebselen oxide or 5 µM AG1478.
The subject of another assay is gD-HER2-EBM*. Nature of the assay: Western blot of HBMECs overexpressing ERM-binding-motif mutant gD-HER2-EBM*. The conditions noted are these: 5 μM, 24 h, HBMEC.

T2 sequence (P04626 23-1255, one chain of several): as the sequence (P04626 23-1255) above
Protocol for gD-HER2-EBM*: Cells were washed with cold PBS and lysed in a buffer containing 1% Triton, 50 mM Tris–HCl pH 8.8, 25 mM NaCl, 1 mM EDTA, 1 mM Na3VO4, 1 mM AEBSF, 10 μg·mL^−1 each of aprotinin/leupeptin/pepstatin or lysed in Laemmli buffer. Proteins were separated by SDS/PAGE and transferred to nitrocellulose (Schleicher & Schuell, Keene, NH, USA). Membranes were blocked for 1 h in TBS/0.1% Tween20/3% BSA and probed overnight with indicated antibodies. Peroxidase‐coupled secondary antibodies were used to reveal antibody binding using the ECL substrate (Pierce, Thermo Fisher Scientific, Waltham, MA, USA) and Fusion FX (Vilber Lourmat, Collégien, France) chemoluminescence acquisition system. Quantifications were done with IMAGEJ software (1.53e) (NIH, USA).
(G, H) Lysates from HBMECs transfected with vectors encoding gD‐tagged wild‐type HER2 (gD‐HER2‐WT) (G) or the mutant generated with alanine and glycine substitutions within the ERM‐binding motif (gD‐HER2‐EBM*) (H) and treated or not during 24 h with 5 μM ebselen oxide were analyzed by western blot using antibodies against activated HER2 (pY1248), HER2, activated ERK (pERK), and ERK. Representative blots and quantification of data are shown where data are mean ± sem [n = 3 (G); n = 2 (H)].

For `O=C1c2ccccc2[Se](=O)N1c1ccccc1` (centres unmarked) [Ebselen oxide, ebselen oxide], the half-maximal inhibitory concentration (IC50) in assay [1] worked out at 0.634 µM. For the same compound, the EC50 turned out to be 0.634 µM in assay [1] (read-out: EC50, μM (inhibition of HER2-FERME interaction)); 23.9 µM at HER2 (pY1248) in SKBR3 (SKBR3, 24 h, read-out: EC50 (inhibition of HER2)); 26.9 µM on HER2 (pY1248) in SKBR3 (Table 1, HER2+ breast cancer cells (ebselen oxide value equals SKBR3 48 h), read-out: EC50, μM (HER2 inhibition)). Further, the “Physiological activation of HER2 in heterodimers and downstream AKT and ERK activation upon HRG” value in assay [2] is on record as “did not alter”. Further, the “Inhibition of HER2 activation” value at HER2 (pY1248) in SKBR3 (SKBR3, 24 h) was 66%; on HER2 (pY1248) in SKBR3 (SKBR3, 48 h), 64%. Besides, the “Effect on HER2 activation, single agents and combination” value on HER2 (pY1248) in SKBR3 (SKBR3, ebselen oxide 10 μM, lapatinib 10 nM) was “partially decreased”. The “HER2 inhibition, %” value at HER2 (pY1248) in SKBR3 (Table 1, HER2+ breast cancer cells (ebselen oxide value equals SKBR3 48 h)) is recorded as 64.2%. For the same compound, the “Effect on development of micro-colonies” value in the assay with MDA-MB-231 is given as “no impact”. Moreover, the “Effect on HER2 activation” value on HER2 (pY1248) in SKOV3 is “strongly blocked”. In assay [3], the “Effect on proliferation of cells transfected with pRK5 empty vector” value was “did not affect”. Further, the “Downstream activation of ERK induced by gD-HER2-EBM* overexpression” value in the assay on gD-HER2-EBM* is “did not reduce”. In the assay on gD-HER2-EBM*, the “Phosphorylation of gD-HER2-EBM*” value is listed as “did not reduce”.
